Reference: patent US20240041813A1, “VERY-LONG-CHAIN POLYUNSATURATED FATTY ACIDS, ELOVANOID HYDROXYLATED DERIVATIVES, AND METHODS OF USE” (priority 2020, published 2024)
Entries after “also recorded” stand apart in the source; their conditions may differ.

How the values were obtained:
[1] = system: Alexa 594-RBD; assay: HCEC challenged with IFNγ: Alexa 594-RBD binding (unbiased imaging, Imaris); assay type: cell-based, human; details: IFNγ 100 ng/ml and lipid mediators 200 nM for 12 h, images 24 h after RBD
Description: (§1) For screening the stimulation of receptor ACE2 by cytokines, the HCEC were cultured with KGM until 50-60% confluence. Then, changed to KBM containing IL-1β, -2, -6 and 8, IFN-α, -ε, and -γ or TNFα at 1, 10 or 100 ng/ml. The cells were harvested after 6 hours and analyze for the gene expression of Ace2. In other experiments, HCEC were stimulated with IFNγ, and thereafter, lipid mediators were added. For the Alexa 594-conjugated RBD binding, IFNγ was used as a cytokine trigger. At 12 hours after cytokine exposure and lipid mediator treatments, […] of labeled RBD was added to the medium. The evaluation of RBD binding was conducted 24 hours after.
Twenty-four hours after Alexa 594-RBD was added to the HCEC, the cells were washed with PBS (3×/5 min) and fixed with 4% paraformaldehyde for 30 minutes at RT. The HCEC were washed 2× with PBS and stained with Hoechst 33342 Solution (ThermoFisher Scientific, Cat. 62249) for 30 minutes at RT. Next, the HCEC were washed 2× with PBS before imaging. For unbiased data collection, 7 designated areas were defined in each well (FIG. 63) and captured with an Olympus FV3000 confocal laser scanning microscopy under “Multi Area Time Lapse” (MATL) mode. All images were acquired with the same parameters and Z-section range, converted and inputted in the Imaris software version 9.5.1. The threshold for the control images was defined by the HCEC without Alexa 594-conjugated RBD of S protein and using it as a threshold filter for the Imaris batch image processing function. The sum of total intensity for each image was used to evaluate the binding efficiency.

[2] = system: ACE2; assay: HCEC challenged with IFNγ: Ace2 gene expression; assay type: cell-based, human; details: IFNγ 100 ng/ml
Text: All experiments with human corneal epithelial cells were approved by the Institutional Review Board of LSUHNO and conducted in accordance with NIH guidelines. HCEC were kept frozen in the laboratory at passage 2544. Cells were maintained in keratinocyte growth (KGM) medium containing the keratinocyte basal medium (KBM) (Lonza: CC-3101) supplemented with bovine pituitary extract (BPE), hEGF, Insulin, Hydrocortisone and Gentamicin Sulfate-Amphotericin (GA-1000) (Lonza, Cat. CC-4131). For all experiments, cells were seeded at 30,000 cells/cm2.
as §1
Quantitative PCR was performed with the Biomark HD system (Fluidigm, San Francisco, CA, USA). […]

[3] = system: TMPRSS2; assay: TMPRSS2 mRNA by Taqman qPCR in human alveolar cells; assay type: cell-based; details: in the presence of IL1β
Description: Real-Time PCR using Taqman probes and SYBR green assay. cDNA was produced using lug of total RNA extracted by RNAeasy (Qiagen, Hilden Germany, cat #74104). The first strand of cDNA was produced using iScript™ Reverse Transcription Supermix for RT-qPCR (BioRad cat #1708840). The quantification of Sirt 1, RNF-146, Bcl2, BcL-xl was performed using SYBRgreen assay with primers designed in house (Table 1) using SsoAdvanced Universal SYBR Green Supermix (Biorad cat #1725270). The quantification of ACE2 and TMPRSS2 mRNA was performed using Taqman probes (Biorad cat #qHsaCEP0051563 & qHsaCIP0028919 respectively) labeled with FAM and standardized using PGK1 probe labeled with HEX (Biorad cat #qHsaCEP0050174).

[4] = system: ACE2; assay: Rat cornea alkali burn: ACE2 abundance by Jess capillary-based Western Blot; assay type: in vivo; details: rat cornea after alkali burn; eye drops 20 μl/eye, 3 times/day for 14 days; day 14
Text: Sprague-Dawley rats (8-week-old male) were obtained from Charles River Laboratories (Wilmington, MA, USA) and kept at the Animal Care of the Neuroscience Center of Excellence, Louisiana State University Health (LSUH; New Orleans, LA, USA). All animals were handled in compliance with the guidelines of the ARVO Statement for the Use of Animals in Ophthalmic and Vision Research, and the experimental protocol was approved by the Institutional Animal Care and Use Committee (IACUC) at LSUH.
The rats were anesthetized by intraperitoneal injection of Ketamine (50-100 mg/kg) plus xylazine (5-10 mg/kg). A 4 mm diameter filter paper soaked in 1 N NaOH was placed on the central cornea of the right eye for 45 seconds, and then the eye was thoroughly washed with […] of saline. After injury, the rats were randomly divided into five treatment groups: vehicle; lipoxin A4 (LXA4) from Cayman Chemical (Ann Arbor, MI, USA); R,R Resolvin D6 isomer (RvD6i), R,R neuroprotection D (NPD1), and elovanoid (ELV)-N32. All lipid solutions were prepared at the final concentration of […] using PBS with the minimal contamination of ethanol by evaporating the ethanol and immediately dissolve the lipids in PBS, then vortex well for 2 min. Topical administration (20 μl) was done 3×/day for 14 days. The experiments were double-blinded with the lipid mediators coded during the whole experiments. At the end of the study, when all data was collected, the code was opened.
Briefly, samples were lysed with RIPA buffer containing a protease inhibitor cocktail (Sigma, Cat. P8340). Cell debris was removed after 10 min centrifugation at 16,000×g. Protein concentration was determined by BCA assay (Thermo Fisher Scientific, Cat. 23225) and 1 μg used/reaction. Fluorescent Master Mix was mixed with 40 mM DTT, and the mixture was added to each sample to provide a denaturing and reducing environment. Samples were heated at 95° C./5 min, and 3 μL of each sample were loaded. The 12-230 kDa cartridge (Protein Simple—#SM-W004) was used. Primary antibodies were diluted in antibody diluent 2 buffer (Protein Simple, #042-203) while the working solution of secondary antibodies was provided by the company (Protein Simple, #042-206). Then, the filled plate was spin-down for 10 min at 1,000×g to remove bubbles and plate, and capillaries were loaded into the Jess machine. For data analysis, the area of spectra that matched the molecular weight of the target protein was used. To reduce the coefficient variant, we analyzed the GAPDH for each capillary. The ratio of the targeted protein to GAPDH was used for statistical comparisons. For visualization, the artificial lanes generated from spectra volume was used.

## CC/C=C\CC(O)\C=C/C=C/C=C/C(O)C/C=C\C/C=C\CCCCCCCCCCCCC(=O)O [ELV-N32, (14Z,17Z,20R,21E,23E,25Z,27S,29Z)-20,27-dihydroxydo-triaconta-14,17,21,23,25,29-hexaenoic acid]
[1]
  IFNγ-stimulated Alexa 594-RBD binding: decrease; also recorded: attenuated
[2]
  IFNγ-triggered Ace2 activation: markedly attenuated; also recorded: suppressed
[3]
  TMPRSS2 expression: decreased
[4]
  ACE2 abundance (protein, normalized to GAPDH): decrease
